This note sets out measurements from patent EP0625155B1, “PYRROLOIMIDAZOLYL AND IMIDAZOPYRIDINYL SUBSTITUTED 1H-BENZIMIDAZOLE DERIVATIVES AS AROMATASE INHIBITORS” (JANSSEN PHARMACEUTICA N.V., priority 1992, dated 1993).

In test [1] the test system is Corticosterone. The test can be described thus: Corticosterone production in LHRH/ACTH-injected rats. As to conditions: Rattus norvegicus, po; 10 mg/kg orally by gavage; LHRH/ACTH injected 1 h later; plasma 2 h after stimulation; % non-recovered relative to untreated controls; read-out: Corticosterone in vivo (% inhibition) 10 mg/kg / 2h. Further details: species or system Adult male Wistar rats. On the procedure: (§1) Adult male Wistar rats weighing 250 g were starved 24 h before the start of the experiment. Between 8 and 9 a.m. 10 mg/kg of the test compounds were administered orally by gavage. One hour later, the animals were injected intramuscularly with 40 ng of Luteinizing Hormone Releasing Hormone (LHRH) (Receptal®) and 25 µg of Adrenocorticotropic Hormone (ACTH1-24) (Cortrosyn®). To avoid stress, the animals were also anesthetized with 7.5 mg of pentobarbital. Two hours after stimulation, the animals were killed by decapitation and trunk blood was collected in heparinized tubes. […] Corticosterone was measured using radio immunoassay with ^3H-labelled corticosterone and dextrane-coated charcoal to separate bound and free steroid.

For test [2], the system named is Plasma estradiol. The test can be described thus: Estradiol production in PMSG-injected rats. The conditions noted are these: Rattus norvegicus; 1 mg/kg by gavage three days after 200 I.U. PMSG s.c.; plasma 2 h after administration; % non-recovered relative to untreated controls; read-out: Estradiol in vivo (% inhibition) 1 mg/kg / 2h. Further details: species or system Female Wistar rats. On the procedure: Female Wistar rats weighing 150 g were injected with 200 I.U. Pregnant Mare's Serum Gonadotropin (PMSG) (Folligon®) subcutaneously. Three days later 1 mg/kg of the test compound, dissolved in 20% polyethyleneglycol in water, was administered by gavage. Control animals received 20% polyethyleneglycol only. Two hours after drug or placebo administration the animals were killed by decapitation and trunk blood was collected in heparinized tubes. Plasma estradiol was measured using a direct fluorescence immunoassay.

The test system of test [3] is Plasma testosterone. The test can be described thus: Testosterone production in LHRH/ACTH-injected rats. Further details: species or system Adult male Wistar rats. As to conditions: Rattus norvegicus, po; 10 mg/kg orally by gavage; LHRH/ACTH injected 1 h later; plasma 2 h after stimulation; % non-recovered relative to untreated controls; read-out: Testosterone in vivo (% inhibition) 10 mg/kg / 2h. On the procedure: as §1

Take `CCCCn1cnc2ccc(C3CCc4cncn43)cc21` (racemic) [compound 22]: the inhibition at 10 mg/kg in test [1] amounted to 35%; in test [3], 92.5%. Also, the inhibition at 1 mg/kg in test [2] came out at 91%.
Turning to `Cn1cnc2ccc(C3CCc4cncn43)cc21` (racemic) [compound 23], the values for the inhibition at 10 mg/kg in test [1] and in test [3] were 31% and 81%, respectively. For the same compound, the inhibition at 1 mg/kg in test [2] is 78%.
In the case of `CCCCCn1cnc2ccc(C3CCc4cncn43)cc21` (racemic) [compound 31], the inhibition at 10 mg/kg is 28% in test [1] and 91% in test [3]. For the same compound, in test [2], the inhibition at 1 mg/kg was 69%.
The corresponding values for `CCCCCCn1cnc2ccc(C3CCc4cncn43)cc21` (racemic) [compound 32] are 37%, 67% and 65%.
In the same order, the values of `CCCn1cnc2ccc(C3CCc4cncn43)cc21` (racemic) [compound 33] are 55%, 98% and 82%.
In the same order, the values of `CCCCn1c(CC)nc2ccc(C3CCc4cncn43)cc21` (racemic) [compound 34] are 21%, 12% and 80%.
In the case of `c1cc2ncn(C3CCCCC3)c2cc1C1CCc2cncn21` (racemic) [compound 35], the inhibition at 10 mg/kg stood at 22% in test [1] and 92% in test [3]. The inhibition at 1 mg/kg in test [2] is 77%.
In the same order, the values of `c1ccc(-n2cnc3ccc(C4CCc5cncn54)cc32)cc1` (racemic) [compound 37] are 22%, 96% and 31%.
In the same order, the values of `c1ccc(Cn2cnc3ccc(C4CCc5cncn54)cc32)cc1` (racemic) [compound 38] are 7%, 80% and 42%.
The corresponding values for `CCn1cnc2ccc(C3CCc4cncn43)cc21` (racemic) [compound 39] are 39%, 93% and 90%.
Regarding `c1cc2ncn(C3CC3)c2cc1C1CCc2cncn21` (racemic) [compound 41, (±)-1-cyclopropyl-6-(6,7-dihydro-5H-pyrrolo[1,2-c]imidazol-5-yl)-1H-benzimidazole dinitrate], the inhibition at 10 mg/kg in test [1] was 39%; in test [3], 91%. In addition, the inhibition at 1 mg/kg in test [2] worked out at 89%.
Consider `CC(C)n1cnc2ccc(C3CCc4cncn43)cc21` (racemic) [compound 42], for which the inhibition at 10 mg/kg in test [1] stood at 33%; in test [3], 98%. In addition, in test [2], the inhibition at 1 mg/kg came out at 93%.
For `c1ccc(-c2nc3cc(C4CCc5cncn54)ccc3[nH]2)cc1` (racemic) [compound 43], the values for the inhibition at 10 mg/kg in test [1] and in test [3] were 20% and 64%, respectively. In test [2], the inhibition at 1 mg/kg worked out at 54%.
In the case of `CCCCn1c(NC(=O)OC)nc2ccc(C3CCc4cncn43)cc21` (racemic) [compound 44], the inhibition at 10 mg/kg in test [1] was 10%; in test [3], 66%. For the same compound, in test [2], the inhibition at 1 mg/kg came to 66%.
For `c1nc2cc(C3CCc4cncn43)ccc2[nH]1` (racemic) [compound 46], the inhibition at 10 mg/kg was 23% in test [1] and 78% in test [3]. In addition, the inhibition at 1 mg/kg in test [2] turned out to be 77%.
In the same order, the values of `Cc1nc2cc(C3CCc4cncn43)ccc2[nH]1` (racemic) [compound 47, (±)-5-(6,7-dihydro-5H-pyrrolo-[1,2-c]imidazol-5-yl)-2-methyl-1H-benzimidazole] are 4%, 85% and 72%.
In the same order, the values of `CCCCn1c(O)nc2ccc(C3CCc4cncn43)cc21` (racemic) [compound 48, (±)-1-butyl-6-(6,7-dihydro-5H-pyrrolo[1,2-c]imidazol-5-yl)-1H-benzimidazol-2-ol] are 4%, 93% and 77%.
In the same order, the values of `C=CCn1cnc2ccc(C3CCc4cncn43)cc21` (racemic) [compound 49] are 13%, 90% and 81%.
